Values of other authors in patent US9056899B2 (priority 2008, dated 2015).
Converted amounts (≈) assume the structure as drawn. Read-outs that look alike come from different tables or passages of the source.

Experiments:
Settings in all cases: cited from earlier work
[1] = system: BW25113 and gene knockouts
[2] = system: BW25113 and gene knockouts; remark: listed apart in the source
[3] = system: BW25113 and gene knockouts from KEIO collection
[4] = system: BW25113 and gene knockouts from KEIO collection; remark: listed apart in the source
[5] = system: BW25113 and gene knockouts; remark: listed apart in the source
[6] = system: BW25113 and gene knockouts; remark: listed apart in the source

## CC1(C)S[C@@H]2[C@H](NC(=O)[C@H](N)c3ccccc3)C(=O)N2[C@H]1C(=O)O [Ampicillin]
[1]; BW25113 starting strain
  MIC E test: 5.0 µg/mL (≈ 14.3 µM)
[1]
  MIC E test: 1.5 µg/mL (≈ 4.29 µM)
[1]; dacA knockout
  MIC E test: 1.5 µg/mL (≈ 4.29 µM)
[1]; dapF knockout
  MIC E test: 2.0 µg/mL (≈ 5.72 µM)
[1]; pal knockout
  MIC E test: 2.0 µg/mL (≈ 5.72 µM)
[1]; rplA knockout
  MIC E test: 2.0 µg/mL (≈ 5.72 µM)
[1]; tatC knockout
  MIC E test: 3.0 µg/mL (≈ 8.59 µM)
[1]; tolC knockout
  MIC E test: 1.0 µg/mL (≈ 2.86 µM)
[2]; BW25113 starting strain
  MIC Plating: 6.0 µg/mL (≈ 17.2 µM)
[2]; JW5115 knockout
  MIC Plating: 2.0 µg/mL (≈ 5.72 µM)
[2]; acrA knockout
  MIC Plating: 1.5 µg/mL (≈ 4.29 µM)
[2]; acrB knockout
  MIC Plating: 2.0 µg/mL (≈ 5.72 µM)
[2]; atpA knockout
  MIC Plating: 2.5 µg/mL (≈ 7.15 µM)
[2]
  MIC Plating: 1.5 µg/mL (≈ 4.29 µM)
[2]; dacA knockout
  MIC Plating: 1.5 µg/mL (≈ 4.29 µM)
[2]; dapF knockout
  MIC Plating: 1.0 µg/mL (≈ 2.86 µM)
[2]; dcd knockout
  MIC Plating: 2.5 µg/mL (≈ 7.15 µM)
[2]; ddlB knockout
  MIC Plating: 1.0 µg/mL (≈ 2.86 µM)
[2]; dedD knockout
  MIC Plating: 2.0 µg/mL (≈ 5.72 µM)
[2]; deoT knockout
  MIC Plating: 2.0 µg/mL (≈ 5.72 µM)
[2]; dksA knockout
  MIC Plating: 2.0 µg/mL (≈ 5.72 µM)
[2]; emtA knockout
  MIC Plating: 2.0 µg/mL (≈ 5.72 µM)
[2]; envC knockout
  MIC Plating: 1.5 µg/mL (≈ 4.29 µM)
[2]; fkpB knockout
  MIC Plating: 2.5 µg/mL (≈ 7.15 µM)
[2]; gpmM knockout
  MIC Plating: 1.5 µg/mL (≈ 4.29 µM)
[2]; hscA knockout
  MIC Plating: 2.0 µg/mL (≈ 5.72 µM)
[2]; hscB knockout
  MIC Plating: 2.5 µg/mL (≈ 7.15 µM)
[2]; lptB knockout
  MIC Plating: 2.0 µg/mL (≈ 5.72 µM)
[2]; mrcB knockout
  MIC Plating: 2.0 µg/mL (≈ 5.72 µM)
[2]; pal knockout
  MIC Plating: 1.5 µg/mL (≈ 4.29 µM)
[2]; pgmB knockout
  MIC Plating: 1.5 µg/mL (≈ 4.29 µM)
[2]; phoP knockout
  MIC Plating: 2.0 µg/mL (≈ 5.72 µM)
[2]; qmcA knockout
  MIC Plating: 2.5 µg/mL (≈ 7.15 µM)
[2]; rimK knockout
  MIC Plating: 2.0 µg/mL (≈ 5.72 µM)
[2]; rplA knockout
  MIC Plating: 2.0 µg/mL (≈ 5.72 µM)
[2]; rpmF knockout
  MIC Plating: 1.5 µg/mL (≈ 4.29 µM)
[2]; rpsF knockout
  MIC Plating: 2.0 µg/mL (≈ 5.72 µM)
[2]; rrmJ knockout
  MIC Plating: 1.5 µg/mL (≈ 4.29 µM)
[2]; skp knockout
  MIC Plating: 2.0 µg/mL (≈ 5.72 µM)
[2]; sufI knockout
  MIC Plating: 2.0 µg/mL (≈ 5.72 µM)
[2]; surA knockout
  MIC Plating: 2.0 µg/mL (≈ 5.72 µM)
[2]; tatC knockout
  MIC Plating: 2.0 µg/mL (≈ 5.72 µM)
[2]; tolC knockout
  MIC Plating: 2.0 µg/mL (≈ 5.72 µM)
[2]; tolR knockout
  MIC Plating: 2.0 µg/mL (≈ 5.72 µM)
[2]; ubiG knockout
  MIC Plating: 2.0 µg/mL (≈ 5.72 µM)
[2]; xapR knockout
  MIC Plating: 1.5 µg/mL (≈ 4.29 µM)
[2]; ybeD knockout
  MIC Plating: 2.0 µg/mL (≈ 5.72 µM)
[2]; ybeY knockout
  MIC Plating: 2.0 µg/mL (≈ 5.72 µM)
[2]; ybgF knockout
  MIC Plating: 1.5 µg/mL (≈ 4.29 µM)
[2]; ybhT knockout
  MIC Plating: 2.0 µg/mL (≈ 5.72 µM)
[2]; yciM knockout
  MIC Plating: 1.5 µg/mL (≈ 4.29 µM)
[2]; yfgC knockout
  MIC Plating: 1.5 µg/mL (≈ 4.29 µM)
[2]; yfgL knockout
  MIC Plating: 2.0 µg/mL (≈ 5.72 µM)
[2]; ygcO knockout
  MIC Plating: 2.0 µg/mL (≈ 5.72 µM)
[2]; yjjY knockout
  MIC Plating: 1.5 µg/mL (≈ 4.29 µM)

## O=C(O)c1cn(C2CC2)c2cc(N3CCNCC3)c(F)cc2c1=O [Ciprofloxacin]
[3]; BW25113 starting strain
  MIC E-Test: 0.016 µg/mL (≈ 0.0483 µM)
[3]; fis knockout
  MIC E-Test: 0.006 µg/mL (≈ 0.0181 µM)
[3]; recA knockout
  MIC E-Test: 0.002 µg/mL (≈ 0.00604 µM)
[3]; recC knockout
  MIC E-Test: 0.008 µg/mL (≈ 0.0241 µM)
[3]; recG knockout
  MIC E-Test: 0.006 µg/mL (≈ 0.0181 µM)
[3]; ruvC knockout
  MIC E-Test: 0.008 µg/mL (≈ 0.0241 µM)
[3]; tolC knockout
  MIC E-Test: 0.004 µg/mL (≈ 0.0121 µM)
[3]; uvrD knockout
  MIC E-Test: 0.005 µg/mL (≈ 0.0151 µM)
[3]; xseA knockout
  MIC E-Test: 0.006 µg/mL (≈ 0.0181 µM)
[4]; BW25113 starting strain
  MIC Plating: 0.02 µg/mL (≈ 0.0604 µM)
[4]; acrA knockout
  MIC Plating: 0.0075 µg/mL (≈ 0.0226 µM)
[4]; acrB knockout
  MIC Plating: 0.008 µg/mL (≈ 0.0241 µM)
[4]; deoT knockout
  MIC Plating: 0.0075 µg/mL (≈ 0.0226 µM)
[4]; dksA knockout
  MIC Plating: 0.01 µg/mL (≈ 0.0302 µM)
[4]; fis knockout
  MIC Plating: >0.00875 µg/mL
[4]; hfq knockout
  MIC Plating: 0.0075 µg/mL (≈ 0.0226 µM)
[4]; hrpA knockout
  MIC Plating: 0.00875 µg/mL (≈ 0.0264 µM)
[4]; ihfA knockout
  MIC Plating: 0.0075 µg/mL (≈ 0.0226 µM)
[4]; pgmB knockout
  MIC Plating: 0.01 µg/mL (≈ 0.0302 µM)
[4]; qmcA knockout
  MIC Plating: >0.00875 µg/mL
[4]; recA knockout
  MIC Plating: >0.00875 µg/mL
[4]; recB knockout
  MIC Plating: 0.0075 µg/mL (≈ 0.0226 µM)
[4]; recC knockout
  MIC Plating: >0.00875 µg/mL
[4]; recG knockout
  MIC Plating: 0.006 µg/mL (≈ 0.0181 µM)
[4]; recN knockout
  MIC Plating: 0.01 µg/mL (≈ 0.0302 µM)
[4]; rimK knockout
  MIC Plating: >0.00875 µg/mL
[4]; rseA knockout
  MIC Plating: >0.00875 µg/mL
[4]; ruvA knockout
  MIC Plating: 0.01 µg/mL (≈ 0.0302 µM)
[4]; ruvC knockout
  MIC Plating: >0.00875 µg/mL
[4]; tolC knockout
  MIC Plating: 0.005 µg/mL (≈ 0.0151 µM)
[4]; uvrD knockout
  MIC Plating: 0.006 µg/mL (≈ 0.0181 µM)
[4]; xseA knockout
  MIC Plating: 0.006 µg/mL (≈ 0.0181 µM)
[4]; xseB knockout
  MIC Plating: 0.008 µg/mL (≈ 0.0241 µM)
[4]; ybgC knockout
  MIC Plating: 0.0075 µg/mL (≈ 0.0226 µM)
[4]; ybgF knockout
  MIC Plating: 0.0075 µg/mL (≈ 0.0226 µM)
[4]; ychJ knockout
  MIC Plating: 0.0075 µg/mL (≈ 0.0226 µM)
[4]; yciM knockout
  MIC Plating: 0.0075 µg/mL (≈ 0.0226 µM)
[4]; ygcO knockout
  MIC Plating: 0.0075 µg/mL (≈ 0.0226 µM)
[4]; yjjY knockout
  MIC Plating: 0.00875 µg/mL (≈ 0.0264 µM)

## Cc1cc(NS(=O)(=O)c2ccc(N)cc2)no1 [Sulfamethaxazone]
[5]; BW25113 starting strain
  MIC Plating: 1000 µg/mL (≈ 3950 µM)
[5]; JW5115 knockout
  MIC Plating: 400 µg/mL (≈ 1580 µM)
[5]; JW5474 knockout
  MIC Plating: 500 µg/mL (≈ 1970 µM)
[5]; dapF knockout
  MIC Plating: 300 µg/mL (≈ 1180 µM)
[5]; dcd knockout
  MIC Plating: >550 µg/mL
[5]; degP knockout
  MIC Plating: 500 µg/mL (≈ 1970 µM)
[5]; deoT knockout
  MIC Plating: 550 µg/mL (≈ 2170 µM)
[5]; dksA knockout
  MIC Plating: 550 µg/mL (≈ 2170 µM)
[5]; dnaK knockout
  MIC Plating: 300 µg/mL (≈ 1180 µM)
[5]; envC knockout
  MIC Plating: 400 µg/mL (≈ 1580 µM)
[5]; fis knockout
  MIC Plating: 600 µg/mL (≈ 2370 µM)
[5]; gpmM knockout
  MIC Plating: 400 µg/mL (≈ 1580 µM)
[5]; hns knockout
  MIC Plating: 550 µg/mL (≈ 2170 µM)
[5]; lpdA knockout
  MIC Plating: 400 µg/mL (≈ 1580 µM)
[5]; lptB knockout
  MIC Plating: 500 µg/mL (≈ 1970 µM)
[5]; nudB knockout
  MIC Plating: 350 µg/mL (≈ 1380 µM)
[5]; pgmB knockout
  MIC Plating: 500 µg/mL (≈ 1970 µM)
[5]; pstA knockout
  MIC Plating: 550 µg/mL (≈ 2170 µM)
[5]; pstS knockout
  MIC Plating: 550 µg/mL (≈ 2170 µM)
[5]; qmcA knockout
  MIC Plating: 550 µg/mL (≈ 2170 µM)
[5]; recA knockout
  MIC Plating: 400 µg/mL (≈ 1580 µM)
[5]; recB knockout
  MIC Plating: 350 µg/mL (≈ 1380 µM)
[5]; recC knockout
  MIC Plating: 350 µg/mL (≈ 1380 µM)
[5]; recG knockout
  MIC Plating: 500 µg/mL (≈ 1970 µM)
[5]; resA knockout
  MIC Plating: >550 µg/mL
[5]; rfaE knockout
  MIC Plating: 550 µg/mL (≈ 2170 µM)
[5]; rimK knockout
  MIC Plating: 350 µg/mL (≈ 1380 µM)
[5]; rplA knockout
  MIC Plating: 500 µg/mL (≈ 1970 µM)
[5]; rpmF knockout
  MIC Plating: 550 µg/mL (≈ 2170 µM)
[5]; rpsU knockout
  MIC Plating: 500 µg/mL (≈ 1970 µM)
[5]; tolC knockout
  MIC Plating: 400 µg/mL (≈ 1580 µM)
[5]; xapR knockout
  MIC Plating: >550 µg/mL
[5]; ybeY knockout
  MIC Plating: 500 µg/mL (≈ 1970 µM)
[5]; ybgF knockout
  MIC Plating: >550 µg/mL
[5]; yciM knockout
  MIC Plating: >550 µg/mL
[5]; yciS knockout
  MIC Plating: 550 µg/mL (≈ 2170 µM)
[5]; ydjI knockout
  MIC Plating: >550 µg/mL
[5]; yfgL knockout
  MIC Plating: 400 µg/mL (≈ 1580 µM)
[5]; ygcO knockout
  MIC Plating: 550 µg/mL (≈ 2170 µM)
[5]; yiiU knockout
  MIC Plating: 550 µg/mL (≈ 2170 µM)
[5]; yjjY knockout
  MIC Plating: >550 µg/mL
[5]; ylcG knockout
  MIC Plating: 500 µg/mL (≈ 1970 µM)
[5]; ymfI knockout
  MIC Plating: 500 µg/mL (≈ 1970 µM)
[5]; yneE knockout
  MIC Plating: 550 µg/mL (≈ 2170 µM)

## gentamicin
[6]; BW25113 starting strain
  MIC Plating: 0.8 µg/mL
[6]; JW5360 knockout
  MIC Plating: >0.8 µg/mL
[6]; dapF knockout
  MIC Plating: 0.7 µg/mL
[6]; envC knockout
  MIC Plating: >0.5 µg/mL
[6]; gpmM knockout
  MIC Plating: 0.7 µg/mL
[6]; hflK knockout
  MIC Plating: 0.5 µg/mL
[6]; rfaC knockout
  MIC Plating: 0.7 µg/mL
[6]; rffA knockout
  MIC Plating: 0.7 µg/mL
[6]; rnt knockout
  MIC Plating: 0.7 µg/mL
[6]; rplI knockout
  MIC Plating: 0.7 µg/mL
[6]; rpmE knockout
  MIC Plating: 0.6 µg/mL
[6]; rpoN knockout
  MIC Plating: 0.5 µg/mL
[6]; sapC knockout
  MIC Plating: 0.5 µg/mL
[6]; secG knockout
  MIC Plating: 0.5 µg/mL
[6]; tatC knockout
  MIC Plating: 0.5 µg/mL
[6]; tolC knockout
  MIC Plating: 0.5 µg/mL
[6]; tusC knockout
  MIC Plating: 0.5 µg/mL
[6]; tusD knockout
  MIC Plating: 0.5 µg/mL
[6]; xapR knockout
  MIC Plating: >0.5 µg/mL
[6]; yciM knockout
  MIC Plating: >0.7 µg/mL
[6]; yfgC knockout
  MIC Plating: >0.5 µg/mL
[6]; yidD knockout
  MIC Plating: 0.5 µg/mL
